The source of these data is patent US4122199A, “Amides of pyrrolidinoethylamine which can be used in treatment of coughs” (Pierre Fabre S.A., priority 1976, dated 1978).

One data set concerns guinea pig. The data set is described as follows: Takagi's technique: coughing by mechanical stimulation of the tracheal bifurcation in the unanesthetized guinea pig. Format: in vivo. The note with it: 50 mg/kg i.p.; for Cough rating, m = average of the ratings, after treatment: 1 heavy, 0.5 light, 0 no cough. The protocol:
A second method using a different type of stimulation of coughs made it possible to note, as compared with codeine, the antitussive properties of the main components claimed.
The technique employed is derived from Takagi's technique, and consists in causing coughing by mechanical stimulation of the tracheal bifurcation in the unanesthetized guinea pig.
The cough is evaluated by the research worker in accordance with the following scale:
The products are administered intraperitoneally and the stimulation is effected 10 and 20 minutes after the injection.

The nature of data set [1]: Solubility characteristics. Format: physicochemical. To be noted: for Solubility in water / solubility: water.
For a further data set, the system named is guinea pigs. The data set is described as follows: Citric acid aerosol method on guinea pigs (antitussive). The note with it: for % decrease in no. coughs in 15 mins.: orally, citric acid aerosol; for change in vivo at 50 mg/kg: Cavia porcellus, ip, 0.25 h, 50 mg/kg i.p., 20 minutes before 20% citric acid aerosol, read-out: % reduction of no. of coughs in 15 minutes. It is filed as in vivo. The protocol:
The animals were subjected to a 20% citric acid aerosol for 15 minutes.
The coughs were recorded by a microphone.
The products were administered intraperitoneally 20 minutes before the exposure to the aerosol.
Some derivatives were also tested orally.

For a further data set, the system named is Candida albicans. The data set is described as follows: Fungistatic/bacteriostatic effect, Candida albicans. Format: cell-based. To be noted: compared with S. aureus and E. coli. The protocol:
(§1) The determination of fungistatic bacteriostatic properties was carried out by two methods on four strains:
(§2) Halved serial dilutions are formed in a hemoylsis tube, in each case to a volume of 1 ml; each dilution is inoculated with 10^6 micro-organisms per ml. After 48 hours in the oven, the minimum inhibitory concentration is determined. A subculture of the negative tubes (bacteriostatic), makes it possible to note the bactericidal concentration.

In the next data set the test system is Pseudomonas aeruginosa. The data set is described as follows: Fungistatic/bacteriostatic effect, Pseudomonas aeruginosa. It is filed as cell-based. The note with it: compared with S. aureus and E. coli. The protocol:
as §1, §2

A further data set relates to micro-organisms. In words: Bactericidal action (subculture of the negative tubes). Format: cell-based. The note with it: at concentrations of 1 g percent. The procedure: as §1, §2
The test system of a further data set is mice. The data set is described as follows: in vivo. To be noted: isotonic aqueous solution. The procedure:
(§3) It is determined on mice, the products being administered orally, intraperitoneally, and intraveneously in isotonic aqueous solution.

A further data set is described as follows: in vivo. The note with it: mouse, in vivo, mice, isotonic aqueous solution. The procedure:
as §3

Data set [2] can be described thus: Local anesthesia activity. To be noted: compared with procaine.
Setting [3] is: iv, intravenous, read-out: DL 50 intravenous.
Where [4] appears, read: ip, intraperitoneal, read-out: DL 50 intraperitoneal.

Where a name gives a salt, the structure may show the parent alone. Read-outs that look alike come from different tables or passages of the source.

Turning to `COc1ccc2c3c1O[C@H]1[C@@H](O)C=C[C@H]4[C@@H](C2)N(C)CC[C@@]341` [CODEINE, codeine, reference compound], in the data set on guinea pig (t + 10 mn), the “% variation of cough rating” value is given as -22% and the “Cough rating, m = average of the ratings, after treatment” value (from here on “Cough rating, m = average”) is listed as 0,75. Moreover, in the data set with guinea pig (t + 20 mn), the “% variation of cough rating” value was -30% and the “Cough rating, m = average” value was 0,67.

On to `Cc1cc(Br)cc(C(=O)NCCN2CCCC2)c1O` [Example 9, N(2'-pyrrolidino-ethyl)-5-bromo-3-methyl-salicylamide hydrochloride], for which, in [1] (% soluble), the Solubility in ethanol was found to be 3% and the “Solubility in propylene glycol” value turned out to be 7%. In data set [1] (in words), the Solubility in ether entry is given as “insoluble” and the Solubility in water entry is “very soluble”.

On to `O=C(NCCN1CCCC1)c1cc2ccccc2oc1=O` [Example 14, N(2'-pyrrolidino-ethyl)-3-coumarin-carboxamide hydrochloride], for which, in data set [1] (% soluble), the Solubility in ethanol was 4% and the “Solubility in propylene glycol” value turned out to be 7%. Besides, in [1] (in words), the Solubility in water entry was “very soluble”.

With `O=C(NCCN1CCCC1)C(c1ccccc1)c1ccccc1` [F 1459, N(2'-pyrrolidino-ethyl)-α,α-diphenyl acetamide hydrochloride], in the data set with guinea pig (t + 10 mn), the “% variation of cough rating” value is -32% and the “Cough rating, m = average” value is 0,67. Besides, in the data set on guinea pig (t + 20 mn), the “% variation of cough rating” value is listed as -66% and the “Cough rating, m = average” value is 0,33. For the same molecule, the “% decrease in no. coughs in 15 mins.” value with guinea pigs (50 mg/kg, hydrochloride) is -31. Further, in data set [1] (% soluble), the Solubility in ethanol was 5%, the “Solubility in propylene glycol” value worked out at 3% and the solubility was 250 mg/mL. Besides, in the data set with Candida albicans, the “effect on Candida albicans” value is “more moderate but significant effect”. For the same molecule, the “effect on Pseudomonas aeruginosa” value with Pseudomonas aeruginosa is on record as “more moderate but significant effect”. In addition, the bactericidal action entry in the data set on micro-organisms is “real and significant”. In addition, the “DL 50 oral” value with mice (hydrochloride) was determined as 562 mg/kg. For the same molecule, the LD50 in “in vivo” (setting [3]) came out at 48 mg/kg.

`CCOC(C(=O)NCCN1CCCC1)(c1ccccc1)c1ccccc1` [F 1460, N(2-pyrrolidino-ethyl)-α,α-diphenyl-α-ethoxy-acetamide hydrochloride]: in [1] (% soluble), the Solubility in ethanol is given as 4%. Also, the Solubility in ether result in data set [1] (in words) is reported as “insoluble”. In [1] (% soluble), the solubility was found to be 10 mg/mL. Also, the LD50 was 178 mg/kg in “in vivo” (setting [4]); 40 mg/kg in the data set “in vivo” (setting [3]); 750 mg/kg in “in vivo” (po, oral, read-out: DL 50 oral).

As for `O=C(NCCN1CCCC1)N1c2ccccc2Sc2ccccc21` [F 1461, N(2'-pyrrolidino-ethyl)-10-phenothiazine carboxamide hydrochloride], the entries for the “% variation of cough rating” value in the data set on guinea pig (t + 10 mn) and in the data set on guinea pig (t + 20 mn) were -35% and -55%, respectively. For the same molecule, the “Cough rating, m = average” value with guinea pig (t + 10 mn) is 0,54; in the data set with guinea pig (t + 20 mn), 0,37. Also, the results for the “% decrease in no. coughs in 15 mins.” value in the data set with guinea pigs (50 mg/kg) and with guinea pigs (100 mg/kg) were -12 and -25, respectively. Also, the “Solubility in N-methyl pyrrolidone” value in data set [1] (N-methyl pyrrolidone, % soluble) was determined as 10%. This molecule also showed a Solubility in ethanol in data set [1] (% soluble) of 10%. Moreover, in data set [1] (% soluble), the “Solubility in propylene glycol” value was found to be 10%. For the same molecule, the solubility in data set [1] (% soluble) was found to be 100 mg/mL. The LD50 in “in vivo” (setting [4]) was found to be 178 mg/kg; in the data set “in vivo” (setting [3]) it was 26 mg/kg; in “in vivo” (po, oral, read-out: DL 50 oral), 560 mg/kg.

Regarding `C=CCOc1c(C)cc(Br)cc1C(=O)NCCN1CCCC1` [F 1479, N(2'-pyrrolidino-ethyl)-2-allyloxy-5-bromo-3-methyl benzamide hydrochloride], in data set [1] (in words), the Solubility in water result is listed as “very soluble”.

With `O=C(NCCN1CCCC1)C1c2ccccc2-c2ccccc21` [F 1532, N(2'-pyrrolidino-ethyl)-9-fluoroene-carboxamide hydrochloride], in [1] (in words), the Solubility in ethanol entry is reported as “very soluble”, the “Solubility in propylene glycol” value was “very soluble” and the Solubility in water result is on record as “very soluble”. The “effect on Candida albicans” value in the data set with Candida albicans is “more moderate but significant effect”. For the same molecule, in the data set on Pseudomonas aeruginosa, the “effect on Pseudomonas aeruginosa” value is “more moderate but significant effect”. Besides, in the data set with micro-organisms, the bactericidal action result was “real and significant”. For the same molecule, the LD50 in the data set “in vivo” (setting [4]) amounted to 75 mg/kg. Moreover, the LD50 in the data set “in vivo” (po, oral, read-out: DL 50 oral) came to 178 mg/kg.

Regarding `O=C(NCCN1CCCC1)C(c1ccccc1)N1CCCCC1` (stereo not drawn) [F 1533, N(2'-pyrrolidino-ethyl)phenyl piperidino-acetamide], the change in vivo at 50 mg/kg with guinea pigs is -7%. Also, the Solubility in ethanol result in data set [1] (in words) is given as “Very soluble”. Moreover, the Solubility in water entry in data set [1] (in words) was “insoluble”. The “effect on Candida albicans” value in the data set with Candida albicans is reported as “more moderate but significant effect”. The “effect on Pseudomonas aeruginosa” value in the data set on Pseudomonas aeruginosa is given as “more moderate but significant effect”. Also, the bactericidal action entry with micro-organisms was “real and significant”. In addition, the LD50 in the data set “in vivo” (setting [4]) stood at 178 mg/kg; in the data set “in vivo” (po, oral, read-out: DL 50 oral), 750 mg/kg.

Consider `O=C(NCCN1CCCC1)C(O)(c1ccccc1)c1ccccc1` [F 1535, N(2'-pyrrolidino-ethyl)-α,α-diphenyl-hydroxy-acetamide hydrochloride], for which the Solubility in water result in [1] (in words) is given as “very soluble”. In addition, in data set [2], the local anesthesia activity result is reported as “high order of local anesthesia activity comparable to that of procaine”. For the same molecule, the LD50 is 237 mg/kg in “in vivo” (setting [4]) and 562 mg/kg in the data set “in vivo” (oral, read-out: DL 50 oral).

For `O=C(O)c1ccccc1C(=O)NCCN1CCCC1` [F 1537, N(2'-pyrrolidino-ethyl)-2-carboxy-benzamide], the change in vivo at 50 mg/kg in the data set on guinea pigs was -8%. In [1] (in words), the Solubility in ethanol result is on record as “very soluble”, the “Solubility in propylene glycol” value was “very soluble” and the Solubility in water entry is reported as “very soluble”. Further, the LD50 in the data set “in vivo” (setting [4]) came to 500 mg/kg. Further, the LD50 in the data set “in vivo” (po, oral, read-out: DL 50 oral) is 1000 mg/kg.

For `COc1cc(C(=O)NCCN2CCCC2)cc(OC)c1OC` [F 1538, N(2'-pyrrolidino-ethyl)-3-4-5-trimethoxy-benzamide hydrochloride], the change in vivo at 50 mg/kg with guinea pigs was -1%. In addition, in data set [1] (in words), the Solubility in ethanol entry is on record as “soluble”, the “Solubility in propylene glycol” value is “soluble” and the Solubility in water entry is “soluble”. Moreover, the LD50 in “in vivo” (setting [4]) is 300 mg/kg. Also, the LD50 in the data set “in vivo” (po, oral, read-out: DL 50 oral) was found to be 562 mg/kg.

Regarding `CC(C)(Oc1ccccc1)C(=O)NCCN1CCCC1` [F 1540, N(2'-pyrrolidino-ethyl)phenoxy-isobutyramide hydrochloride], in data set [1] (in words), the Solubility in ethanol entry is reported as “soluble”, the “Solubility in propylene glycol” value is recorded as “soluble” and the Solubility in water result is listed as “soluble”. For the same molecule, the LD50 in the data set “in vivo” (setting [4]) is 237 mg/kg. In the data set “in vivo” (po, oral, read-out: DL 50 oral), the LD50 came out at 1000 mg/kg.

`O=C(C=Cc1ccccc1)NCCN1CCCC1` [F 1542, N(2'-pyrrolidino-ethyl)cinnamide, HCl]: the change in vivo at 50 mg/kg in the data set with guinea pigs is -19.5%. Besides, in [1] (in words), the Solubility in ethanol result is given as “very soluble”, the “Solubility in propylene glycol” value is reported as “very soluble” and the Solubility in water result is on record as “very soluble”. The LD50 in the data set “in vivo” (setting [4]) was 178 mg/kg. Further, in the data set “in vivo” (po, oral, read-out: DL 50 oral), the LD50 came out at 1000 mg/kg.

As to `O=C(NCCN1CCCC1)C(c1ccccc1)c1ccccc1` [F 1629, N(2-pyrrolidino-ethyl)-α,α-diphenyl-acetamide pamoate], the “% decrease in no. coughs in 15 mins.” value in the data set on guinea pigs (50 mg/kg) is listed as -30. The “% decrease in no. coughs in 15 mins.” value in the data set on guinea pigs (100 mg/kg) is -50. In data set [1] (in words), the Solubility in alcohol result is “Insoluble”, the “Solubility in dimethyl acetamide” value is “Soluble”, the “Solubility in methyl pyrrolidone” value is “Soluble” and the Solubility in water result is reported as “Insoluble”. Also, in the data set on mice, the “DL 50 intraperitoneal” value is reported as 750 mg/kg and the “DL 50 oral” value was found to be 2000 mg/kg.

Take `O=C(NCCN1CCCC1)C(c1ccccc1)c1ccccc1` [F 1630, N(2-pyrrolidino-ethyl)-α,α-diphenyl-acetamide palmitate]: in [1] (in words), the Solubility in alcohol entry was “Poorly soluble”, the “Solubility in dimethyl acetamide” value is given as “Poorly soluble”, the “Solubility in methyl pyrrolidone” value is listed as “Poorly soluble” and the “Solubility in propylene glycol” value was “Poorly soluble”. Moreover, the Solubility in water entry in [1] (in words) is listed as “Insoluble”. Also, in the data set on mice, the “DL 50 intraperitoneal” value was 500 mg/kg and the “DL 50 oral” value amounted to 1500 mg/kg.

Usually solubility stands for the dissolved amount per volume that the medium holds. Low readings indicate a poorly soluble substance, high ones a readily soluble substance.
